From patent publication EP4603504A1, “NOVEL CATHEPSIN K AND L INHIBITORS” (ECOLE POLYTECHNIQUE FEDERALE DE LAUSANNE (EPFL), priority 2024, dated 2025) come the findings set out here.

Peptide text beside a SMILES is read from it.

In general, IC50 refers to the concentration that inhibits the measured activity by half. A higher IC50 goes with weaker potency.

In data set [1] the target is T1, CTSL (Homo sapiens, UniProt P07711).
T1 construct: purchased R&D systems 952-CY-010
Briefly: FRET assay cathepsin L. The format is biochemical. The note with it: result in words, compared with other NNPIs (Fig 2h-j). On the procedure: (§1) In brief, CTSK or CTSL was diluted to 20 µg/ml or 40 µg/ml respectively, in Assay Buffer (50 mM MES, 5 mM DTT, 1 mM EDTA, 0.005% (w/v) Brij-35, pH 6.0), and incubated on ice for 15 minutes. After activation, CTSK or CTSL was diluted to 0.02 µg/ml in Assay Buffer. The substrate peptide Z-Leu-Arg-AMC (R&D systems, cat #ES008) was then diluted to 20 µM in Assay buffer (40 µM for CTSL).
(§2) Next, 50 µl of the enzyme solution was loaded in a 96-well plate, inhibitors to be tested were added to the enzyme and incubated for 30 minutes, and then the reaction was started by adding 50 µl of the fluorogenic substrate. A substrate blank containing 50 µl of Assay Buffer and 50 µl of substrate without any cathepsin was included. Fluorescent emission was measured with SpectraMax iD3 (Molecular Devices) in kinetic mode for 60 minutes (excitation: 380 nm, emission: 460 nm).
A library of 32 NNPIs was screened by FRET assay on CTSK and CTSL by using 384-well plates. For each of the amino acid positions from 2 to 7 in the original NNPI-E15 structure, 6 different amino acid substitutions were tested (A, L, T, W, E or R). The final concentrations of enzyme and substrate were the same as the ones described above for the respective FRET assays. The final reaction volume per well was 20 µl. The inhibitor concentration was 30 nM. Fluorescent emission was measured with a BioTek Neo HTS plate reader.

Data set [2] can be described thus: Solubility (remark in text, no method). The data set is classed as physicochemical.
The test system of data set [3] is panel of 7 different cysteine cathepsin proteases. Briefly: FRET assays on a panel of cathepsins (selectivity). The format is biochemical. The note with it: profiled against five additional cathepsins (Fig. 1). An excerpt:
The figures show. • Figure 1. […] A schematic representation of the structure of the NNPI is given to the left.

Data set [4] addresses T1, CTSL. Briefly: FRET assay on cathepsin L (CTSL). Conditions: substrate Z-Leu-Arg-AMC, inhibitor preincubated 30 minutes, n=3. The data set is classed as biochemical. How it is done:
as §1, §2

T1 sequence (P07711 114-333): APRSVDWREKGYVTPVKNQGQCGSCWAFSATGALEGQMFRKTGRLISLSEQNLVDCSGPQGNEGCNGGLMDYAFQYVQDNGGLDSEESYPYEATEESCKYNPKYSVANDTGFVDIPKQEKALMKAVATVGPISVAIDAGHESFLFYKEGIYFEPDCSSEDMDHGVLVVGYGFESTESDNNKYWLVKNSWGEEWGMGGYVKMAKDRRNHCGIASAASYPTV

For the molecule “KRLW(Y)VMW [NNPI-G12] [listing 1 of 2 here]”, the “inhibitory potency on CTSL” value at CTSL [1] is “most potent inhibitor”.

For the molecule “KRLW(Y)VMW [NNPI-G12] [listing 2 of 2 here]”, in data set [2], the solubility entry is on record as “poor”.

Consider `CC[C@H](C)[C@H](NC(=O)[C@@H](NC(=O)/C=C/CNC(=O)[C@H](CC(C)C)NC(=O)[C@H](CCCNC(=N)N)NC(=O)[C@H](CCCNC(=N)N)NC(=O)[C@@H](N)CCCCN)C(C)C)C(=O)N[C@@H](CCCNC(=N)N)C(N)=O` [NNPI-F17, KRRL(Y)VIR] (HELM PEPTIDE1{K.R.R.L.[O=C(/C=C/CN[*:1])[*:2]].V.I.R.[am]}$$$$V2.0; N-terminus and C-terminus assumed), for which the selectivity entry in data set [3] is reported as “good selectivity”.

In the case of `CC(C)C[C@H](NC(=O)[C@H](CCCNC(=N)N)NC(=O)[C@@H](N)CCCCN)C(=O)N[C@@H](Cc1c[nH]c2ccccc12)C(=O)NC/C=C/C(=O)N[C@H](C(=O)N[C@@H](CC(C)C)C(=O)N[C@@H](Cc1c[nH]c2ccccc12)C(N)=O)C(C)C` [NNPI-G14, KRLW(Y)VLW] (HELM PEPTIDE1{K.R.L.W.[O=C(/C=C/CN[*:1])[*:2]].V.L.W.[am]}$$$$V2.0), at CTSL [4], it took 1.7 nM to reach half-maximal inhibition (IC50). The selectivity entry in data set [3] is reported as “good selectivity”.
